Laboratory results taken from patent US20090311217A1, “3-SUBSTITUTED-1H-INDOLE COMPOUNDS, THEIR USE AS MTOR KINASE AND PI3 KINASE INHIBITORS, AND THEIR SYNTHESES” (priority 2008, published 2009).

Legend:
Format in all cases: biochemical
PI3K-alpha = PI3K-alpha (Homo sapiens, UniProt P42336); assay: PI3K-alpha fluorescence polarization assay; details: read-out: PI3Kα Avg. IC50
PI3K-gamma = PI3K-gamma (Homo sapiens, UniProt P48736); assay: PI3K-gamma fluorescence polarization assay; details: PI3Kγ Avg. IC50
PI3K-gamma, sequence (P48736 whole entry, species assumed, the tested form may be a part): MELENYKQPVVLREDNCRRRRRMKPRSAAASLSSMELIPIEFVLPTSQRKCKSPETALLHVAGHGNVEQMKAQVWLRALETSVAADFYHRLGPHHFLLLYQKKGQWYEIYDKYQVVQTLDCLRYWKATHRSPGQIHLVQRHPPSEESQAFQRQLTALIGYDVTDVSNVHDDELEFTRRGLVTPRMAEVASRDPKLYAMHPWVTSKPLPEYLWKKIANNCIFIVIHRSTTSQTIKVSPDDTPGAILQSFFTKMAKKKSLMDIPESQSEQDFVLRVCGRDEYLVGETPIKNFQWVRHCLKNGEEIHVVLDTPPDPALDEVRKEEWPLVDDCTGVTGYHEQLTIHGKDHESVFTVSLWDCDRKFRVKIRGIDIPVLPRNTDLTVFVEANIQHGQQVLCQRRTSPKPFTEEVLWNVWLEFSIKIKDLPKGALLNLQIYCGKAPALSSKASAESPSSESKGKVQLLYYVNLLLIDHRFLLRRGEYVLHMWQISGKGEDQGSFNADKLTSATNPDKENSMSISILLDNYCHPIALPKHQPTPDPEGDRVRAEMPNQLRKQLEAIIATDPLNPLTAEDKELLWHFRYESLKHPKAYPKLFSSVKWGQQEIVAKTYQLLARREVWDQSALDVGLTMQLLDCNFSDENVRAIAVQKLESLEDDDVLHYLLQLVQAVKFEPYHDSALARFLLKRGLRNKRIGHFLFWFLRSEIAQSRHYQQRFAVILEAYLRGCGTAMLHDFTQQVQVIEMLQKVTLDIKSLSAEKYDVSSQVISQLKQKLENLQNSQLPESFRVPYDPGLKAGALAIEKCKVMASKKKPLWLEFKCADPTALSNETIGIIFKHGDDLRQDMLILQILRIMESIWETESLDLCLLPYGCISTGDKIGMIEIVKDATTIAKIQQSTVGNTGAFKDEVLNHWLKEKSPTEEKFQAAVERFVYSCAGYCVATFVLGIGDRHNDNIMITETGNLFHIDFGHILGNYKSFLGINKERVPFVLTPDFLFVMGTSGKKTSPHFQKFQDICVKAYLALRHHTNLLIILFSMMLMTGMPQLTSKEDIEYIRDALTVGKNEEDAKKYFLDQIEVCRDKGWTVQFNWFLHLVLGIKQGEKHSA
In short: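 Reactions used 5 ng enzyme with 2.5 μM diC8-PI(4,5)P2 and 25 μM ATP in 5 mM HEPES pH 7, 2.5 mM MgCl2, run 1 h at 25° C. After an EDTA quench (10 mM), 100 nM GST-GRP1 PH domain and 5 nM BODIPY-TMR-IP4 were added and fluorescence polarization was read.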

human TOR = target: T1, human TOR (Homo sapiens, UniProt P42345); assay: mTOR enzyme assay (DELFIA, His6-S6K substrate); details: read-out: mTOR Kinase Avg. IC50
T1 construct: FLAG

PI3K-alpha, sequence (P42336 whole entry, species assumed): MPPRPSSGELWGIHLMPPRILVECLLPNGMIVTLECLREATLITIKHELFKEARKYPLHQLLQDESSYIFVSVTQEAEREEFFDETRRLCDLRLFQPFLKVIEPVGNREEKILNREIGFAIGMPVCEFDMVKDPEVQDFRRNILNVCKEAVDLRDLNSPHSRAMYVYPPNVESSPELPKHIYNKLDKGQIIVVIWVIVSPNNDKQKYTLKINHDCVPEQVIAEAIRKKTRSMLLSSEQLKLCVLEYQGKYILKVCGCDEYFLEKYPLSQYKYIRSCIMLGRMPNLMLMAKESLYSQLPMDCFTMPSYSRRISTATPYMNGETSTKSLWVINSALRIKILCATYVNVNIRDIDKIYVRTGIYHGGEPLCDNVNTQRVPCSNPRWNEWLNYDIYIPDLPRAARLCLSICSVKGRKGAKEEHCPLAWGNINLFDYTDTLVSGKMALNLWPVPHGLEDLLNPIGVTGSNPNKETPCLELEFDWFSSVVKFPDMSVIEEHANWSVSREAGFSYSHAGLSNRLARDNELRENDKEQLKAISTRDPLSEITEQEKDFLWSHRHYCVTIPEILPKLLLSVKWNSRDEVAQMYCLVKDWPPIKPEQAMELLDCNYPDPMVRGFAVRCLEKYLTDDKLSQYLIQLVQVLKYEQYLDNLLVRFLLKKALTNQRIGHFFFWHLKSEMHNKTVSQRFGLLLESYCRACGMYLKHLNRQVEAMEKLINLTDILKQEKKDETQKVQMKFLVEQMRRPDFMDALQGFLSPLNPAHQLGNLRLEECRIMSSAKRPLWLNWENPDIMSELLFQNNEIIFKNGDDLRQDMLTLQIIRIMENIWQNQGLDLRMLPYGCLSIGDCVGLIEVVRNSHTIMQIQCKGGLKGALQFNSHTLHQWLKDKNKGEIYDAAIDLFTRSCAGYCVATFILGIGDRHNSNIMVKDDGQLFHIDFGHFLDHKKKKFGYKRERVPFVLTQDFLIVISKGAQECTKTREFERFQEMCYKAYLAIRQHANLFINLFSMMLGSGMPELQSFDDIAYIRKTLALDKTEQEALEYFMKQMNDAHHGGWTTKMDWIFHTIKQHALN
PI3K-alpha, sequence (P27986 whole entry partner, species assumed): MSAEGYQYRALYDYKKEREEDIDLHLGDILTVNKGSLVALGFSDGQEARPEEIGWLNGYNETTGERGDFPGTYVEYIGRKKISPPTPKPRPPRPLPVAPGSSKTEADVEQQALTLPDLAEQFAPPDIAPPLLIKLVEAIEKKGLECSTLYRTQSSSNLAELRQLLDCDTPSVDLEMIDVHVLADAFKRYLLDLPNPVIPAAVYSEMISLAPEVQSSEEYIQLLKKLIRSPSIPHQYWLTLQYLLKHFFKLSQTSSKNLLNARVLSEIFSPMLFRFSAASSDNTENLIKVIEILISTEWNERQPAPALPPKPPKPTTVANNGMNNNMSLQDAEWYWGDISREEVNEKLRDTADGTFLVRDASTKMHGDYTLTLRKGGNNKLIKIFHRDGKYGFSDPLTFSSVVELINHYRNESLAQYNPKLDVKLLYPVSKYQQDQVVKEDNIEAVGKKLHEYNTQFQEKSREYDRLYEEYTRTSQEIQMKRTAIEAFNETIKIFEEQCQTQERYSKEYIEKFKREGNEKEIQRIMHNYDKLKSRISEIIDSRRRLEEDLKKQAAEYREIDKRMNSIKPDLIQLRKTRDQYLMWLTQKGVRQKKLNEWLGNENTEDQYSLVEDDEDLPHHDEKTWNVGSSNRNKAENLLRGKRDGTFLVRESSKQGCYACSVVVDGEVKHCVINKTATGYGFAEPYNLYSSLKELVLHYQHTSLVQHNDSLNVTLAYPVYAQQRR

Row | IC50 (PI3K-alpha) | IC50 (PI3K-gamma) | IC50 (human TOR) | Compound
1 | 0.0055 µM | 0.127 µM | 0.039 µM | CNC(=O)Nc1ccc2c(c1)C(=O)/C(=C/c1c(-c3c(C)nn(C)c3C)n(CCN(C)CCN(C)C)c3ccc(OC)cc13)O2 [Compound 665, 1-[(2Z)-2-{[1-(2-{[2-(dimethylamino)ethyl](methyl)amino}ethyl)-5-methoxy-2-(1,3,5-trimethyl-1H-pyrazol-4-yl)-1H-indol-3-yl]methylidene}-3-oxo-2,3-dihydro-1-benzofuran-5-yl]-3-methylurea]
2 | 1.23 µM | 2.31 µM | 0.125 µM | CN(C)Cc1ccc(-c2ccc(-c3cccc4c3c(/C=C3\Oc5cc(O)cc(O)c5C3=O)cn4C)cc2)cc1 [Example 301, (2Z)-2-[(4-{4′-[(Dimethylamino)methyl]biphenyl-4-yl}-1-methyl-1H-indol-3-yl)methylene]-4,6-dihydroxy-1-benzofuran-3(2H)-one]
3 | 0.573 µM | 1.05 µM | 0.065 µM | O=C1C(=Cc2c(-c3ccc(O)cc3)[nH]c3ccccc23)Oc2cc(O)cc(O)c21 [Example 206, 4,6-dihydroxy-2-{[2-(4-hydroxyphenyl)-1H-indol-3-yl]methylene}-1-benzofuran-3(2H)-one]
4 | 0.0018 µM | 0.055 µM | 0.185 µM | CCn1c(C2CCCCC2)c(/C=C2\Oc3ccc(NC(=O)Nc4ccc(C(=O)N5CCN(C)CC5)cc4)cc3C2=O)c2cc(OC)ccc21 [Compound 645, 1-{(2Z)-2-[(2-cyclohexyl-1-ethyl-5-methoxy-1H-indol-3-yl)methylene]-3-oxo-2,3-dihydro-1-benzofuran-5-yl}-3-{4-[(4-methylpiperazin-1-yl)carbonyl]phenyl}urea]
5 | 0.029 µM | 0.116 µM | 0.155 µM | COc1ccc2c(c1)c(/C=C1\Oc3cc(O)cc(O)c3C1=O)c(C(=O)N(C)C)n2CCn1ccnc1 [Example 314, 3-[(Z)-(4,6-Dihydroxy-3-oxo-1-benzofuran-2(3H)-ylidene)methyl]-1-[2-(1H-imidazol-1-yl)ethyl]-5-methoxy-N,N-dimethyl-1H-indole-2-carboxamide]
6 | 0.608 µM | 2.52 µM | 0.0235 µM | CNC(=O)Nc1ccc(-c2cccc3c2c(/C=C2\Oc4cc(O)cc(O)c4C2=O)cn3C)cc1 [Example 393, 1-(4-{3-[(Z)-(4,6-Dihydroxy-3-oxo-1-benzofuran-2(3H)-ylidene)methyl]-1-methyl-1H-indol-4-yl}phenyl)-3-methylurea]
7 | 0.018 µM | 1.38 µM | 6.5 µM | COc1ccc2c(c1)c(/C=C1\Oc3cc(O)ccc3C1=O)c(C)n2CCCN1CCC(C)CC1 [Example 460, (2Z)-6-Hydroxy-2-({5-methoxy-2-methyl-1-[3-(4-methylpiperidin-1-yl)propyl]-1H-indol-3-yl}methylene)-1-benzofuran-3(2H)-one]
8 | 2.45 µM | 6 µM | 1.08 µM | O=C1C(=Cc2c(-c3ccccc3)n(CCN3CCOCC3)c3ccccc23)Oc2cc(O)cc(O)c21 [Example 147, 4,6-dihydroxy-2-{[1-(2-morpholin-4-ylethyl)-2-phenyl-1H-indol-3-yl]methylene}-1-benzofuran-3(2H)-one]
9 | 0.837 µM | 3.29 µM | 0.23 µM | Cn1c(-c2ccsc2)c(C=C2Oc3cc(O)cc(O)c3C2=O)c2ccccc21 [Example 194, 4,6-dihydroxy-2-{[1-methyl-2-(3-thienyl)-1H-indol-3-yl]methylene}-1-benzofuran-3(2H)-one]
10 | > 10 µM | 8.14 µM | 2.03 µM | COc1cc(O)cc2c1C(=O)/C(=C/c1c(-c3ccccc3)n(C)c3ccccc13)O2 [Example 432, (2Z)-6-Hydroxy-4-methoxy-2-[(1-methyl-2-phenyl-1H-indol-3-yl)methylene]benzofuran-3(2H)-one]
11 | 0.75 µM | 2.25 µM | 0.0123 µM | CC(=O)Nc1ccc(-c2cccc3c2c(/C=C2\Oc4cc(O)cc(O)c4C2=O)cn3C)cc1 [Example 383, N-(4-{3-[(Z)-(4,6-Dihydroxy-3-oxo-1-benzofuran-2(3H)-ylidene)methyl]-1-methyl-1H-indol-4-yl}phenyl)acetamide]
12 | 2.98 µM | 9 µM | > 20 µM | CN1CCN(CCn2cc(/C=C3\Oc4cc(O)cc(O)c4C3=O)c3c(-c4ccc(N(C)C)cc4)cccc32)CC1 [Example 438, (2Z)-2-({4-[4-(Dimethylamino)phenyl]-1-[2-(4-methylpiperazin-1-yl)ethyl]-1H-indol-3-yl}methylene)-4,6-dihydroxy-1-benzofuran-3(2H)-one]
13 | 2.03 µM | > 10 µM | > 20 µM | O=C1C(=Cc2c[nH]c3cccc(Cl)c23)Oc2cc(O)cc(O)c21 [Example 171, 2-[(4-chloro-1H-indol-3-yl)methylene]-4,6-dihydroxy-1-benzofuran-3(2H)-one]
14 | 0.00205 µM | 0.063 µM | 0.018 µM | CNC(=O)Nc1ccc2c(c1)C(=O)/C(=C/c1c(-c3c(C)nn(C)c3C)n(CCNCCN(C)C)c3ccc(OC)cc13)O2 [Compound 664, 1-[(2Z)-2-{[1-(2-{[2-(dimethylamino)ethyl]amino}ethyl)-5-methoxy-2-(1,3,5-trimethyl-1H-pyrazol-4-yl)-1H-indol-3-yl]methylidene}-3-oxo-2,3-dihydro-1-benzofuran-5-yl]-3-methylurea]
15 | 0.0007 µM | 0.005 µM | 0.11 µM | CCn1c(C)c(/C=C2\Oc3ccc(NC(=O)Nc4ccc(C(=O)N5CCOCC5)cc4)cc3C2=O)c2cc(OC)ccc21 [Compound 686, 1-{(2Z)-2-[(1-ethyl-5-methoxy-2-methyl-1H-indol-3-yl)methylidene]-3-oxo-2,3-dihydro-1-benzofuran-5-yl}-3-[4-(morpholin-4-ylcarbonyl)phenyl]urea]
16 | 0.00075 µM | 0.00507 µM | < 0.001 µM | CNC(=O)Nc1ccc2c(c1)C(=O)/C(=C/c1c(-c3c(C)nn(C)c3C)[nH]c3c(F)cc(OC)cc13)O2 [Compound 693, 1-[(2Z)-2-{[7-fluoro-5-methoxy-2-(1,3,5-trimethyl-1H-pyrazol-4-yl)-1H-indol-3-yl]methylidene}-3-oxo-2,3-dihydro-1-benzofuran-5-yl]-3-methylurea]
17 | 0.0003 µM | 0.003 µM | 0.001 µM | COc1ccc2[nH]c(-c3c(C)nn(C)c3C)c(/C=C3\Oc4ccc(NC(=O)Nc5ccc(C(=O)N(C)C6CCN(C)C6)cc5)cc4C3=O)c2c1 (stereo not drawn) [Compound 698, 4-({[(2Z)-2-{[5-methoxy-2-(1,3,5-trimethyl-1H-pyrazol-4-yl)-1H-indol-3-yl]methylidene}-3-oxo-2,3-dihydro-1-benzofuran-5-yl]carbamoyl}amino)-N-methyl-N-(1-methylpyrrolidin-3-yl)benzamide]
18 | 0.073 µM | 1.27 µM | 7.5 µM | COc1ccc2c(c1)c(/C=C1\Oc3cc(O)cc(Cl)c3C1=O)c(C)n2CCCN(C)C [Example 466, (2Z)-4-Chloro-2-({1-[3-(dimethylamino)propyl]-5-methoxy-2-methyl-1H-indol-3-yl}methylene)-6-hydroxy-1-benzofuran-3(2H)-one]
19 | 2.23 µM | 2.19 µM | 6.45 µM | CC(C)Cn1c(-c2ccccc2)c(C=C2Oc3cc(O)cc(O)c3C2=O)c2ccccc21 [Example 150, 4,6-dihydroxy-2-[(1-isobutyl-2-phenyl-1H-indol-3-yl)methylene]-1-benzofuran-3(2H)-one]
